Measured values published in patent publication US10669272B2, “Substituted naphthyridinone compounds useful as T cell activators” (BRISTOL-MYERS SQUIBB COMPANY, priority 2018, dated 2020).
Where two headings read alike, the source gives them in different places.

How the values were obtained:
human DGKα = target: T1, human DGKα (Homo sapiens, UniProt P23743); assay: DGKα LIPGLO assay (extruded liposome substrate), in vitro DGK inhibition; assay type: biochemical
T1 construct: TVMV protease cleavage site (C); Hexa-His (C); made in house; host or cells: Sf9 insect cells (baculovirus, Bac-to-Bac)
T1 sequence (P23743 with tags, fused parts or gaps): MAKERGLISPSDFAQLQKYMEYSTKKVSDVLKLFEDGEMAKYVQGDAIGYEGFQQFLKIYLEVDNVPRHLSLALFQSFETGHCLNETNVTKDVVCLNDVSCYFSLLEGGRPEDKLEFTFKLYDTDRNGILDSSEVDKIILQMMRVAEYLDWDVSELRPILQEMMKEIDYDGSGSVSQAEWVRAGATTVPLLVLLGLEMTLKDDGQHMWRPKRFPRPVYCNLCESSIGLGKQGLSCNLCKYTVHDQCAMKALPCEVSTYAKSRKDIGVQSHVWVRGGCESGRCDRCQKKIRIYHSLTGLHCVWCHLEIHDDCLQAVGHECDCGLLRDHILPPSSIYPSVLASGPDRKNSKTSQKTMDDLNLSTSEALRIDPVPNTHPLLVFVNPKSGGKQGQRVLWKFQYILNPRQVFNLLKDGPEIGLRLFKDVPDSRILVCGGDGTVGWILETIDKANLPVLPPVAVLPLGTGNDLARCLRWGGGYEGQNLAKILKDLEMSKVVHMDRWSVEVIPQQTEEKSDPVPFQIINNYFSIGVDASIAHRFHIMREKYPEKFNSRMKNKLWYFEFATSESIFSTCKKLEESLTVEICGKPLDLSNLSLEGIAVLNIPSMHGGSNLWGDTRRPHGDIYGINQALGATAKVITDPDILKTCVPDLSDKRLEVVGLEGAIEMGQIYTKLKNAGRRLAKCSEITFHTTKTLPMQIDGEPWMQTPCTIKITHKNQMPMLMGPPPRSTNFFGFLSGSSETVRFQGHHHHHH

Human venous whole blood = assay: Human whole blood IFN-γ assay; assay type: cell-based; details: human whole blood, read-out: INFg Whole Blood Normalized Agonist EC50;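 note: blood from healthy donors exposed to compound for 1 h before stimulation with anti-CD3 and anti-CD28 at 1 µg/mL each, IFN-γ quantified in supernatant by AlphaLISA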
human DGKζ = target: T2, human DGKζ (Homo sapiens, UniProt Q13574); assay: DGKζ LIPGLO assay (extruded liposome substrate), in vitro DGK inhibition; assay type: biochemical; details: read-out: DGKz LIPGLO IC50
T2 construct: TVMV protease cleavage site (C); Hexa-His (C); made in house; host or cells: Sf9 insect cells (baculovirus, Bac-to-Bac)
T2 sequence (Q13574 with tags, fused parts or gaps isoform Q13574-4): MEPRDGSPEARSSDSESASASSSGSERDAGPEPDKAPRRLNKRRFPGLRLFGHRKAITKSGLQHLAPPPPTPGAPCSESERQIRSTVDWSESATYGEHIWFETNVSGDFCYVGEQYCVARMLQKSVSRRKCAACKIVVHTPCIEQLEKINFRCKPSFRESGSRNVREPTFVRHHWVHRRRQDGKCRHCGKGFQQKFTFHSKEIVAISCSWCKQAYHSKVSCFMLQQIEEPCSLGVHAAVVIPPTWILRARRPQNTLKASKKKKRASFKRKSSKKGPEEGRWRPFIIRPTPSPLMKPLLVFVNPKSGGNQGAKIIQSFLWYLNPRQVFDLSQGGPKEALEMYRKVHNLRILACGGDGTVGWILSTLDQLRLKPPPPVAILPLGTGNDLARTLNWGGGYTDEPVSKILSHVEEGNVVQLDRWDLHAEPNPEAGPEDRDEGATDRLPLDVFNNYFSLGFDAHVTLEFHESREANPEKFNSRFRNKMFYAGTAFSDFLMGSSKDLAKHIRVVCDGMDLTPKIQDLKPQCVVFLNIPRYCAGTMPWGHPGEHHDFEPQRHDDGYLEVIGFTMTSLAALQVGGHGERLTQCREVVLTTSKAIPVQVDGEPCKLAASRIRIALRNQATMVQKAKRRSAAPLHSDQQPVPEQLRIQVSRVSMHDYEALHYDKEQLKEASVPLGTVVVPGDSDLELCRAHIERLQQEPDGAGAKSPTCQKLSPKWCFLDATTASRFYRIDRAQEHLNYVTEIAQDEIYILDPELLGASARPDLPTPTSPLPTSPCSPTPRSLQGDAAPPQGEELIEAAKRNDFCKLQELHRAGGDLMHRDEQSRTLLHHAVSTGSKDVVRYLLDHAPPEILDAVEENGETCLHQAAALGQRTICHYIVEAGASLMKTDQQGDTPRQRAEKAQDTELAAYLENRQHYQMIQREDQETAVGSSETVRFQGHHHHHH

[1] = anti-CD3 plus anti-CD28, 24 hours, 3 μM reference compound = 100% activation
[2] = DGKα liposome (LIPGLO) assay, read-out: DGKa LIPGLO IC50
[3] = liposome (LIPGLO) assay, read-out: DGKa LIPGLO IC50
[4] = Homo sapiens, 24 h, normalized to 3 μM reference compound with anti-CD3 plus anti-CD28 as 100% activation
[5] = normalized to 3 μM reference compound with anti-CD3 plus anti-CD28 as 100% activation
[6] = Homo sapiens, 24 h, anti-CD3 plus anti-CD28, 24 hours, 3 μM reference compound = 100% activation

| Compound | IC50 (human DGKζ; DGKζ liposome (LIPGLO) assay) [nM] | IC50 (human DGKα; [2]) [nM] | IC50 (human DGKα; [3]) [nM] | IC50 (human DGKζ; liposome (LIPGLO) assay) [nM] | EC50 (Human venous whole blood; [4]) [nM] | EC50 (Human venous whole blood; [5]) [nM] | further results |
| --- | --- | --- | --- | --- | --- | --- | --- |
| CC(c1ccc(Cl)cc1)N1C[C@H](C)N(c2c(C#N)c(=O)n(C)c3ccc(C#N)nc23)C[C@H]1C (single isomer, unassigned) [Example 792] | 83000 | – | – | – | – | – | IC50 (human DGKα; DGKa LIPGLO IC50, DGKα liposome (LIPGLO) assay): 1500 nM; EC50 (Human venous whole blood; [1]): 21000 nM |
| Cc1cccc(C(c2ccc(F)cc2)N2CCN(c3c(C#N)c(=O)n(C)c4ccc(C#N)nc34)C[C@H]2C)c1 (stereo partly drawn) [Example 917] | 700 | 6100 | – | – | – | – | EC50 (Human venous whole blood; [1]): 850 nM |
| COc1ncccc1C(c1ccc(F)cc1)N1CCN(c2c(C#N)c(=O)n(C)c3ccc(C#N)nc23)C[C@H]1C (single isomer, unassigned) [Example 895] | 2700 | 710 | – | – | – | – | EC50 (Human venous whole blood; [1]): 1800 nM |
| CC(c1ccc(F)cc1)N1C[C@@H](C)N(c2cc(=O)n(C)c3ccc(C#N)nc23)C[C@@H]1CO (single isomer, unassigned) [Example 1179] | – | – | > 250000 | 850 | – | 20000 | – |
| CC(c1ccccc1OC(F)(F)F)N1C[C@H](C)N(c2cc(=O)n(C)c3ccc(C#N)nc23)C[C@H]1C (single isomer, unassigned) [Example 1212] | – | – | 23000 | 110 | 11000 | – | – |
| C[C@@H]1CN(c2c(C#N)c(=O)n(C)c3ccc(C#N)nc23)[C@@H](C)CN1C(c1ccc(Cl)cc1)c1ncccc1F (single isomer, unassigned) [Example 822] | 13000 | 2700 | – | – | – | – | EC50 (Human venous whole blood; [1]): 3200 nM |
| CC(c1ccc(Cl)cc1)N1CCN(c2c(C#N)c(=O)n(C)c3ccc(C#N)nc23)C[C@H]1C (single isomer, unassigned) [Example 979] | 55000 | 910 | – | – | – | – | EC50 (Human venous whole blood; [6]): 20000 nM |
| CC(c1ccc(F)cc1F)N1CCN(c2c(C#N)c(=O)n(C)c3ccc(C#N)nc23)C[C@H]1C (single isomer, unassigned) [Example 970] | 28000 | 870 | – | – | – | – | EC50 (Human venous whole blood; [1]): 11000 nM |
| C[C@@H]1CN(c2cc(=O)n(C)c3ccc(C#N)nc23)[C@@H](C)CN1Cc1cccc2c1ccn2C [Example 606] | – | – | 5200 | 66 | 1100 | – | – |
| Cc1ccc(C(c2ncccc2F)N2CCN(c3c(C#N)c(=O)n(C)c4ccc(C#N)nc34)C[C@H]2C)cc1 (single isomer, unassigned) [Example 890] | 8400 | 11000 | – | – | – | – | EC50 (Human venous whole blood; [6]): 6600 nM |
| C[C@@H]1CN(c2cc(=O)n(C)c3ccc(C#N)nc23)[C@@H](C)CN1C(c1ccc(F)cc1)c1cncn1C (stereo partly drawn) [Example 705] | – | – | 220000 | 19000 | – | 9100 | – |
| CC(C)c1nnc(C(c2ccc(F)cc2)N2C[C@H](C)N(c3cc(=O)n(C)c4ccc(C#N)nc34)C[C@H]2C)s1 (single isomer, unassigned) [Example 772] | 27 | 4.7 | – | – | – | – | EC50 (Human venous whole blood; [1]): 1400 nM |
| C[C@@H]1CN(c2c(C#N)c(=O)n(C)c3ccc(C#N)nc23)[C@@H](C)CN1C(c1ccc(F)cc1)c1cnn(C)c1 (stereo partly drawn) [Example 847] | 7400 | 22000 | – | – | – | – | EC50 (Human venous whole blood; [1]): 5000 nM |
| Cc1c(F)ccc(C(C)N2C[C@H](C)N(c3cc(=O)n(C)c4ccc(C#N)nc34)C[C@H]2C)c1Cl (single isomer, unassigned) [Example 433] | – | – | 79000 | 240 | 1300 | – | – |
| C[C@@H]1CN(c2c(C#N)c(=O)n(C)c3ccc(C#N)nc23)CCN1C(c1ccc(F)cc1)c1cncn1C (single isomer, unassigned) [Example 1019] | 5900 | 32000 | – | – | – | – | EC50 (Human venous whole blood; [1]): 20000 nM |
| C[C@H]1CN(C(c2ccc(F)cc2)c2ccc(F)cc2)[C@H](CN2CC(O)C2)CN1c1cc(=O)n(C)c2ccc(C#N)nc12 [Example 1168] | – | – | 83000 | 60000 | 20000 | – | – |
| C[C@@H]1CN(c2cc(=O)n(C)c3ccc(C#N)nc23)[C@@H](C)CN1Cc1ccc(F)c(OC(F)(F)F)c1 [Example 585] | – | – | 9300 | 1500 | 2100 | – | – |
| C[C@@H]1CN(c2c(C#N)c(=O)n(C)c3ccc(C#N)nc23)[C@@H](C)CN1C(c1ccc(F)cc1)c1cnn(C)c1 (stereo partly drawn) [Example 846] | 8600 | 12000 | – | – | – | – | EC50 (Human venous whole blood; [6]): 5100 nM |
| CC[C@H]1CN(C(C)c2ccc(C(F)(F)F)cc2)[C@H](CC)CN1c1cc(=O)n(C)c2ccc(C#N)nc12 (single isomer, unassigned) [Example 1051] | – | – | 270 | 210 | – | 42 | – |

The next lines start with results.

| IC50 (human DGKζ; DGKζ liposome (LIPGLO) assay) [nM] | IC50 (human DGKα; [2]) [nM] | IC50 (human DGKα; [3]) [nM] | IC50 (human DGKζ; liposome (LIPGLO) assay) [nM] | Compound | EC50 (Human venous whole blood; [4]) [nM] | EC50 (Human venous whole blood; [5]) [nM] | further results |
| --- | --- | --- | --- | --- | --- | --- | --- |
| – | – | 1600 | 250 | CC(c1ccc(C2(C#N)CC2)cc1F)N1C[C@H](C)N(c2cc(=O)n(C)c3ccc(C#N)nc23)C[C@H]1C (single isomer, unassigned) [Example 1251] | 3900 | – | – |
| – | – | 1100 | 780 | CC[C@@H]1CN(c2cc(=O)n(C)c3ccc(C#N)nc23)[C@@H](C)CN1C(C)c1ccc(OC)cc1 (single isomer, unassigned) [Example 1351] | – | 740 | – |
| – | – | 1300 | 910 | CC(C)Oc1ccc(C(C)N2C[C@H](C)N(c3cc(=O)n(C)c4ccc(C#N)nc34)C[C@H]2C)cn1 (single isomer, unassigned) [Example 1325] | – | 1800 | – |
| – | – | 1500 | 26000 | CC[C@@H]1CN(c2c(F)c(=O)n(C)c3ccc(C#N)nc23)[C@@H](C)CN1C(C)c1ccc(OC(F)(F)F)cc1 (single isomer, unassigned) [Example 1329] | – | 3600 | – |
| – | – | 1100 | 2800 | C[C@H]1CN(C(c2ccc(F)cc2)c2ccc(C(F)(F)F)cn2)[C@H](CO)CN1c1cc(=O)n(C)c2ccc(C#N)nc12 (single isomer, unassigned) [Example 1388] | 880 | – | – |
| – | – | 26000 | 23000 | CC(c1ccc(-n2cncn2)cc1)N1C[C@H](C)N(c2cc(=O)n(C)c3ccc(C#N)nc23)C[C@H]1C (single isomer, unassigned) [Example 1239] | – | 20000 | – |
| – | – | 2100 | 470 | COC[C@H]1CN(C(c2ccc(F)cc2)c2ccc(F)cc2)[C@H](C)CN1c1cc(=O)n(C)c2ccc(C#N)nc12 [Example 1421, 8-((2R,5R)-4-(bis(4-fluorophenyl)methyl)-2-(methoxymethyl)-5-methylpiperazin-1-yl)-5-methyl-6-oxo-5,6-dihydro-1,5-naphthyridine-2-carbonitrile] | 1500 | – | – |
| – | – | 280 | 24 | CCC(c1ccc(OC(C)C)cc1)N1C[C@H](C)N(c2cc(=O)n(C)c3ccc(C#N)nc23)C[C@H]1CC (single isomer, unassigned) [Example 1447] | – | 50 | – |
| – | – | 41 | 1400 | CC(c1ccc(OC(F)F)cn1)N1C[C@H](C)N(c2cc(=O)n(C)c3ccc(C#N)nc23)C[C@H]1C (single isomer, unassigned) [Example 1224] | – | 1800 | – |
| – | – | 5700 | 3100 | CC(c1ccc(C2(C#N)CC2)cc1F)N1C[C@H](C)N(c2cc(=O)n(C)c3ccc(C#N)nc23)C[C@H]1C (single isomer, unassigned) [Example 1252] | 7700 | – | – |
| – | – | 83000 | 150 | CC(c1cccc2c1OC(F)(F)O2)N1C[C@H](C)N(c2cc(=O)n(C)c3ccc(C#N)nc23)C[C@H]1C (single isomer, unassigned) [Example 1216] | – | 1800 | – |
